Broadly, the Kd is the constant that tells how readily two partners part at equilibrium. Read a high Kd as a looser complex.

Test [1] has as its target T1, AhLap RTX adhesin, carbohydrate-binding module (AhLapCBM3) (Aeromonas hydrophila, UniProt A0KNW4). Kind of test: printed mammalian glycan array (CFG v5.[…]), GFP fluorescence. Details: gene AHA_3491; GFP-tagged AhLapCBM3 (Asn3455 to Gly3940).
For test [2], the target named is T1, AhLap RTX adhesin, carbohydrate-binding module (AhLapCBM3). The experiment in a line: isothermal titration calorimetry at […] °C; […] also blocks binding to cells. On the set-up: gene AHA_3491; AhLapCBM3, three-domain construct Asn3455 to Gly3940 (extender domain, split domain and CBM), His-tagged.
Test [3] shares this target. Kind of test: isothermal titration calorimetry at […] °C; also glycan array. On the set-up: gene AHA_3491; AhLapCBM3, three-domain construct Asn3455 to Gly3940 (extender domain, split domain and CBM), His-tagged. For orientation: ITC needs no label: the signal is the heat of the interaction.

`CC(=O)N[C@H]1C(O)O[C@H](CO)[C@@H](O[C@@H]2O[C@H](CO)[C@H](O)[C@H](O)[C@H]2O[C@@H]2O[C@@H](C)[C@@H](O)[C@@H](O)[C@@H]2O)[C@@H]1O[C@@H]1O[C@@H](C)[C@@H](O)[C@@H](O)[C@@H]1O` (mixture of isomers) [Lewis Y antigen]: the “printed mammalian glycan array (CFG v5.4), GFP fluorescence” value in test [1] was “Strong binding was observed to the Lewis B and Lewis Y antigens”.
In test [2], `C[C@@H]1OC(O)[C@@H](O)[C@H](O)[C@@H]1O` (stereo partly drawn) [L-fucose] gave a Kd of around 386 µM.
On to `CC(=O)N[C@@H]1[C@@H](O[C@@H]2O[C@H](CO)[C@H](O)[C@H](O)[C@H]2O[C@@H]2O[C@@H](C)[C@@H](O)[C@@H](O)[C@@H]2O)[C@H](O[C@@H]2O[C@@H](C)[C@@H](O)[C@@H](O)[C@@H]2O)[C@@H](CO)O[C@H]1O` [Lewis B antigen], for which binding in test [3] was characterised by a dissociation constant (Kd) of 20.8 µM.

Values taken from publication PMC12077191, “Aeromonas hydrophila RTX adhesin has three ligand-binding domains that give the bacterium the potential to adhere to and aggregate a wide variety of cell types” (mBio, 2025).
